Results published in patent US20100056570A1, “FUNGICIDES” (Syngenta Crop Protection, Inc., priority 2006, published 2010).

melting point [°C]	SMILES
172 to 174	CSC(Oc1cc2cc(Br)cnc2cc1Cl)C(=O)NC(C)(C)C (stereo not drawn) [12 (2), 2-(3-Bromo-7-chloro-quinolin-6-yloxy)-N-tert-butyl-2-methylsulfanyl-acetamide]
132 to 134	COCC#CC(C)(C)NC(=O)C(C)(S)Oc1cc2cc(-c3ccsc3)cnc2cc1F (stereo not drawn) [251 (30), 2-(7-Fluoro-3-thiophen-3-yl-quinolin-6-yloxy)-N-(4-methoxy-1,1-dimethyl-but-2-ynyl)-2-methyl-sulfanyl-acetamide]

Further lines, the molecule ahead of its results:

SMILES	melting point [°C]
CSC(Oc1cc2cc(Br)cnc2cc1F)C(=O)NC(C)(C)C (stereo not drawn) [12 (6), 2-(3-Bromo-7-fluoro-quinolin-6-yloxy)-N-tert-butyl-2-methylsulfanyl-acetamide]	144 to 145
CSC(Oc1cc2cc(I)cnc2cc1F)C(=O)NC(C)(C)C (stereo not drawn) [12 (7), 2-(3-iodo-7-fluoro-quinolin-6-yloxy)-N-tert-butyl-2-methylsulfanyl-acetamide]	165 to 166
CSC(Oc1cc2cc(Br)cnc2cc1C)C(=O)NC(C)(C)C (stereo not drawn) [12 (13), 2-(3-Bromo-7-methyl-quinolin-6-yloxy)-N-tert-butyl-2-methylsulfanyl-acetamide]	132 to 134
CSC(Oc1cc2cc(-c3ccsc3)cnc2cc1F)C(=O)NC(C)(C)C (stereo not drawn) [12 (30), N-tert-butyl-2-(7-fluoro-3-thiophen-3-yl-quinolin-6-yloxy)-2-methylsulfanyl-acetamide]	170 to 173
